13 compounds from PubChem BioAssay (NCI) can be followed below.

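Step 1: Grow cells in 96-well plates. Step 2: Expose to compound for 48 hours at 5 concentrations. Step 3: Interpolate endpoints linearly; if unreached, use highest concentration. At the GI50, growth is halved. TGI: total growth inhibition.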 Where a SMILES comes first, the peptide text is derived from it. [ ]: non-standard residue; d: D form. Phe(F5) = N[CH](Cc1c(F)c(F)c(F)c(F)c1F)C(=O)O

Test systems include COLO 205 colon; HOP-62 NSCLC; NCI-H460 lung; OVCAR-3 ovarian; PC-3 prostate; SK-MEL-2 melanoma; SK-MEL-5 melanoma; SN12C renal; SNB-19 CNS; HOP-92 NSCLC.
Holding throughout (test): NCI-60 cell line screen, 48 h

`COc1ccc(Cn2nc(-c3cc(OC)c(OC)c(OC)c3)c3c2CCc2cnoc2-3)cc1OC`: the GI50 with COLO 205 colon is 4.68 µM; in the assay with HOP-62 NSCLC, 6.35 µM; in the assay on NCI-H460 lung, 3.28 µM; with OVCAR-3 ovarian, 3.29 µM; with PC-3 prostate it was 3.62 µM; in the assay on SK-MEL-2 melanoma it was 6.06 µM. The results for the GI50 in the assay on SK-MEL-5 melanoma, in the assay on SN12C renal and with SNB-19 CNS were 2.78 µM, 5.25 µM and 7.99 µM, respectively. For the same compound, the TGI in the assay on COLO 205 colon was 23.4 µM; with HOP-62 NSCLC, 82.7 µM; with NCI-H460 lung it was > 100 µM; in the assay with OVCAR-3 ovarian, 9.61 µM; in the assay with PC-3 prostate, 65.3 µM; with SK-MEL-2 melanoma it was > 100 µM. The values for the TGI with SK-MEL-5 melanoma, in the assay with SN12C renal and with SNB-19 CNS were 12 µM, > 100 µM and > 100 µM, respectively.
Consider `CN(C)c1ccc2c(NCCCCCCNc3ccnc4cc(N(C)C)ccc34)ccnc2c1`, for which the TGI is 67.9 µM in the assay on HOP-62 NSCLC; 57 µM with NCI-H460 lung; 27.7 µM with OVCAR-3 ovarian; 82.5 µM in the assay on SK-MEL-2 melanoma; > 100 µM in the assay with SK-MEL-5 melanoma; > 100 µM in the assay with SN12C renal. In the assay on SNB-19 CNS, this compound yielded a TGI of 16.4 µM.
In the case of `Cc1ccc(C(=O)Nc2ccc(S(=O)(=O)O)c3cc(S(=O)(=O)O)cc(S(=O)(=O)O)c23)cc1NC(=O)c1cccc(N)c1`, the TGI with COLO 205 colon, in the assay with HOP-62 NSCLC, in the assay with NCI-H460 lung, in the assay on OVCAR-3 ovarian, with PC-3 prostate and in the assay on SK-MEL-2 melanoma was > 100 µM each time. In addition, the TGI in the assay with SK-MEL-5 melanoma, in the assay on SN12C renal and in the assay on SNB-19 CNS was > 100 µM throughout.
Regarding `COC(=O)C(CC(C)C)NC(=O)C(Cc1cnc[nH]1)NC(=O)CNC(=O)C(NC(=O)C(C)NC(=O)C(Cc1c[nH]c2ccccc12)NC(=O)C(CCC(=O)O)NC(=O)C(N)Cc1c(F)c(F)c(F)c(F)c1F)C(C)C` (stereo unspecified) (H-[Phe(F5)]EWAVGHL-OMe; configuration not given here), the GI50 in the assay with COLO 205 colon, in the assay on HOP-62 NSCLC, in the assay on NCI-H460 lung, with OVCAR-3 ovarian, in the assay with SK-MEL-2 melanoma and in the assay on SN12C renal was > 100 µM in each case. Besides, the TGI in the assay on COLO 205 colon was > 100 µM; with HOP-62 NSCLC, > 100 µM; in the assay on NCI-H460 lung, > 100 µM; with OVCAR-3 ovarian it was > 100 µM; in the assay on PC-3 prostate, > 12.5 µM; in the assay on SK-MEL-2 melanoma it was > 100 µM. Also, the TGI in the assay with SK-MEL-5 melanoma was > 12.5 µM; in the assay with SN12C renal it was > 100 µM; in the assay on SNB-19 CNS, > 100 µM.
Regarding `CC1=C2CCCC2C/C(=N/Nc2ccc([N+](=O)[O-])cc2[N+](=O)[O-])CC1` (stereo unspecified), the TGI with COLO 205 colon, with HOP-62 NSCLC, in the assay on HOP-92 NSCLC, in the assay with NCI-H460 lung, in the assay with OVCAR-3 ovarian and in the assay on SK-MEL-2 melanoma was > 100 µM in each case. Further, the TGI in the assay with SK-MEL-5 melanoma, with SN12C renal and in the assay with SNB-19 CNS was > 100 µM each time.
As for `CCOP(=O)(OCC)C1CCCCOC1=O` (stereo unspecified), the TGI with COLO 205 colon, in the assay with HOP-62 NSCLC, in the assay with NCI-H460 lung, in the assay on OVCAR-3 ovarian, in the assay with SK-MEL-2 melanoma and in the assay with SK-MEL-5 melanoma was > 100 µM throughout. Besides, the TGI in the assay with SN12C renal and in the assay on SNB-19 CNS was > 100 µM each time.
`Nc1cc(=O)[nH]c(SC2=NC(N)CC(O)C2)n1` (stereo unspecified): the TGI with COLO 205 colon, in the assay on HOP-62 NSCLC, in the assay with HOP-92 NSCLC, in the assay with NCI-H460 lung, with OVCAR-3 ovarian and in the assay with SK-MEL-2 melanoma was > 100 µM each time. For the same compound, the TGI with SK-MEL-5 melanoma, in the assay on SN12C renal and in the assay with SNB-19 CNS was > 100 µM throughout.
Consider `Cc1ccc2c(c1)C1(C)OC(CC(N)C1O)O2` (stereo unspecified), for which the TGI in the assay on COLO 205 colon, in the assay with HOP-62 NSCLC, in the assay with NCI-H460 lung, in the assay with OVCAR-3 ovarian, in the assay with SK-MEL-2 melanoma and in the assay with SK-MEL-5 melanoma was > 100 µM in each case. For the same compound, the TGI in the assay on SN12C renal and in the assay on SNB-19 CNS was > 100 µM in each case.
As to `CCCC(O)[C@@H](O)c1ccc2c(c1O)C(=O)c1c(OC)cccc1C2=O` (stereo partly specified), the TGI was 44.8 µM in the assay on COLO 205 colon; > 100 µM in the assay on HOP-62 NSCLC; > 100 µM in the assay with HOP-92 NSCLC; > 100 µM with NCI-H460 lung; > 100 µM in the assay on OVCAR-3 ovarian; > 100 µM in the assay with SK-MEL-2 melanoma. Moreover, the TGI with SK-MEL-5 melanoma was 31.2 µM; in the assay with SN12C renal, > 100 µM; in the assay on SNB-19 CNS, > 100 µM.
For the compound `CC1(Sc2ccccc2)CN(Cc2ccccc2)C1=O` (stereo unspecified), the TGI with COLO 205 colon was > 100 µM; in the assay with HOP-62 NSCLC, > 100 µM; with HOP-92 NSCLC, 86 µM; in the assay with NCI-H460 lung it was > 100 µM; with OVCAR-3 ovarian, > 100 µM; in the assay with SK-MEL-2 melanoma it was > 100 µM. The TGI in the assay on SK-MEL-5 melanoma, with SN12C renal and in the assay on SNB-19 CNS was > 100 µM each time.
Regarding `COC(=O)CCC(=O)N1Cc2cc(C)ccc2N(C(=O)CCC(=O)OC)Cc2cc(C)ccc21`, the TGI with COLO 205 colon, in the assay with HOP-62 NSCLC, with HOP-92 NSCLC, with NCI-H460 lung, in the assay with OVCAR-3 ovarian and in the assay with SK-MEL-2 melanoma was > 100 µM throughout. In addition, the TGI with SK-MEL-5 melanoma and with SN12C renal was > 100 µM throughout.
`O=C(NCCCCCCNC(=O)c1cccc2ccccc12)c1cccc2ccccc12`: the TGI in the assay on COLO 205 colon was 3.4 µM; in the assay on HOP-62 NSCLC, 48.3 µM; in the assay with HOP-92 NSCLC, 25.8 µM; with NCI-H460 lung, > 100 µM; in the assay on OVCAR-3 ovarian, 71 µM; with SK-MEL-2 melanoma it was 34.5 µM. For the same compound, the TGI in the assay with SK-MEL-5 melanoma and with SN12C renal was > 100 µM throughout.
As for `CCOC(=O)C=C1CCN(C(=O)c2ccccc2)CC1`, the TGI in the assay on COLO 205 colon was > 100 µM; in the assay with HOP-62 NSCLC, > 100 µM; in the assay on HOP-92 NSCLC, > 100 µM; with NCI-H460 lung, > 100 µM; in the assay on OVCAR-3 ovarian, > 100 µM; in the assay with SK-MEL-2 melanoma it was 0.284 µM. The TGI in the assay with SK-MEL-5 melanoma, in the assay on SN12C renal and in the assay with SNB-19 CNS was > 100 µM throughout.
